In patent US7182943B2, “Method and system for modulation of microbial cell characteristics” (Université Laval, priority 2002, dated 2007):
Read-outs that look alike come from different tables or passages of the source. No end group written: not given here.

Legend:
L. diacetylactis = experiment: Antibiotic tolerance by the disc assay method, L. diacetylactis cells; type: cell-based, Lactococcus lactis ssp lactis biovar diacetylactis; details: after approximately 6 days of continuous culture, tolerance increased with time
Description: (§1) FIG. 1 : Tolerance to kanamycin of L. diacetylactis and B. longum cells produced during continuous immobilized cell fermentation in reactors R1 and R2 for different culture times. J and R indicate the culture day and reactor, respectively. The antibiotic sensitivity was tested by the disc assay method.
(§2) Bifidobacterium longum ATCC 15707 and Lactococcus lactis ssp lactis biovar diacetylactis were immobilized separately in κ-carrageenan/locust bean gum gel beads with a 2% (v/v) inoculum, as described previously (Lamboley et al. 1997). Beads with diameters in the range 1–2 mm were selected by wet sieving and used for fermentation experiments. This mixed gel is a good matrix entrapment for temperature-sensitive cells, with good mechanical properties for long-term stability during continuous culture with immobilized cells (Lamboley et al., 1997; 1999; 2001). The κ-carrageenan/locust bean gum gel is stabilized by potassium and other cations present in the culture broth. […] Other gel compositions can also be used for the immobilization matrix, such as polysaccharides and proteins, with other chemical products.
(§3) Reactor R1 was inoculated with 15% (v/v) of each of the two types of gel beads containing a pure culture of the two strains which have been pre-colonized during a 16 h pH-controlled batch culture. […] The reactors in series were continuously fed with MRS medium (de Man et al., 1960) supplemented with KCl 0.15 M to ensure bead mechanical stability. Medium feed flow rate was set at 240 ml/h during the 17-day culture and pH was controlled at 6.0 by addition of NH4OH 6N. The bioreactor was held at temperatures varying between 32–37° C. and purged with CO2 to maintain anaerobic conditions, with mixing set at 120 rpm.
(§4) FIG. 1 and Table 1 illustrate the effect of different antibiotics on the increase of L. diacetylactis and B. longum tolerance as a function of culture time.

B. longum [1] = experiment: Antibiotic sensitivity by the disc assay method, B. longum cells; type: cell-based, Bifidobacterium longum ATCC 15707; details: after approximately 6 days of continuous culture, tolerance increased with time
Description: as §1, §2, §3, §4

B. longum [2] = details: 30000 ppm H2O2, 1 min at 37° C.
Description: FIG. 4: B. longum survival to hydrogen peroxyde (H2O2) of control (free-cell batch culture) and experimental (continuous two-stage immobilized cells fermentation) cultures. […] A bacterial sample (1 ml) was incubated with 9 ml H2O2 solution at final concentrations of 0, 2000, 10000, 20000, or 30000 ppm H2O2, for 1 min at 37° C. After incubation, 0.1 ml of test sample was added to 9.9 ml catalase 2% to stop the reaction, and cell survival was determined by the pour plate method.
The resistance of cells in the effluents from R1 and R2 to different stresses was tested as a function of fermentation time and compared to a control treatment. Control cells were produced during free-cell batch fermentation in MRS medium inoculated at 2% and incubated for 18 h at 37° C. with no pH control.

## CN(C)[C@@H]1C(=O)C(C(N)=O)=C(O)[C@@]2(O)C(=O)C3=C(O)c4c(O)cccc4[C@@](C)(O)[C@H]3C[C@@H]12 [tetracyclin]
L. diacetylactis
  Tolerance of cells produced with immobilized cell technology compared to the control: more tolerant
B. longum [1]
  Tolerance of cells produced with immobilized cell technology compared to the control: increased tolerance

## OO [H2O2, hydrogen peroxide]
B. longum [2]; B. longum cells produced with ICT
  Cell survival: 0.1%
B. longum [2]; B. longum control cells (free-cell batch culture)
  Cell survival: 0.003%

## O=C(N[C@H](CO)[C@H](O)c1ccc([N+](=O)[O-])cc1)C(Cl)Cl [Chloramphenicol]
L. diacetylactis
  Tolerance of cells produced with immobilized cell technology compared to the control: more tolerant
B. longum [1]
  Tolerance of cells produced with immobilized cell technology compared to the control: increased tolerance

## CN[C@H](CC(C)C)C(=O)N[C@H]1C(=O)N[C@@H](CC(N)=O)C(=O)N[C@H]2C(=O)N[C@H]3C(=O)N[C@H](C(=O)N[C@H](C(=O)O)c4cc(O)cc(O)c4-c4cc3ccc4O)[C@H](O)c3ccc(c(Cl)c3)Oc3cc2cc(c3O[C@@H]2O[C@H](CO)[C@@H](O)[C@H](O)[C@H]2O[C@H]2C[C@](C)(N)[C@H](O)[C@H](C)O2)Oc2ccc(cc2Cl)[C@H]1O [Vancomycin]
L. diacetylactis
  Tolerance of cells produced with immobilized cell technology compared to the control: more tolerant
B. longum [1]
  Tolerance of cells produced with immobilized cell technology compared to the control: increased tolerance

## Nisin Z (ITSISLCTPGCKTGALMGCNMKTATCNCSIHVSK; also: lantibiotic nisin-Z: thioether rings and dehydro residues not placed; UniProt P29559 24-57, looked up) [bacteriocin tested among the antibiotics in the disc assay]
L. diacetylactis
  Tolerance of cells produced with immobilized cell technology compared to the control: more tolerant
B. longum [1]
  Tolerance of cells produced with immobilized cell technology compared to the control: increased tolerance

## CC[C@H]1OC(=O)[C@H](C)[C@@H](O[C@H]2C[C@@](C)(OC)[C@@H](O)[C@H](C)O2)[C@H](C)[C@@H](O[C@@H]2O[C@H](C)C[C@H](N(C)C)[C@H]2O)[C@](C)(O)C[C@@H](C)C(=O)[C@H](C)[C@@H](O)[C@]1(C)O [Erythromycin]
B. longum [1]
  Tolerance of cells produced with immobilized cell technology compared to the control: increased tolerance
